From US4623715A, “Novel peptides which are active on the central nervous system and have an action on the cholinergic system” (Hoechst Aktiengeselleschaft, priority 1984, dated 1986)

Tests used:
[1] = test system: cholinergic system (striatum of rats); test: Biochemical effects in the striatum (acetylcholine and choline content) after s.c. administration; action on the cholinergic system; type: in vivo; conditions: for Biochemical effects in the striatum: ACH (acetylcholine) / Biochemical effects in the striatum: CH (choline): s.c., at the dose printed in the same line (E2), arrow up/down = content increased/reduced; for Biochemical effects in the striatum: Dose mcg/kg s.c.; (rats): s.c. dose in rats at which the ACH/CH effects of the same line are reported
Description: At the same time, cholinergic mechanisms in the central nervous system (CNS) are influenced. In the striatum of rats, the choline content is reduced and the acetylcholine content is increased following subcutaneous administration of 10 μg.
The action of the compounds according to the invention on the cholinergic system is determined by a method described in J. Neurochem. 20 (1973), pages 1-8.

rats = test: Behavior (grooming, yawning, stretching; urge to groom and move) after i.c.v. administration; type: in vivo; conditions: i.c.v. administration of 10 μg
[2] = test system: cholinergic system (striatum of rats); test: Biochemical effects in the striatum (acetylcholine and choline content) after s.c. administration; action on the cholinergic system; type: in vivo; conditions: s.c. administration of 1 μg
[3] = test system: acetylcholine conversion in various areas of the brain; conditions: intracerebroventricular (i.c.v.) administration; cited from earlier work
[4] = rats, subcutaneous administration of 10 μg

Molecule	acetylcholine content in the striatum [1, 4]	choline content in the striatum [1, 4]	urge to groom and move (rats)	Biochemical effects in the striatum: ACH (acetylcholine) ([1]; rats)	Biochemical effects in the striatum: CH (choline) ([1]; rats)	Biochemical effects in the striatum: Dose mcg/kg s.c.; (rats) [1] [µg/kg]	acetylcholine content in the striatum ([2]; same actions as IV at 10 μg (increased))	choline content in the striatum ([2]; same actions as IV at 10 μg (reduced))	acetylcholine conversion in various areas of the brain [3]
COC(=O)[C@H](Cc1ccccc1)NC(=O)[C@H](CCCCN)NC(=O)OCc1ccccc1 [IV, Z--Lys--Phe--OMe]	increased	reduced	cause the urge to groom and move	–	–	–	–	–	–
Z--D--Lys--Phe--NH--(CH2)8 --NH2.2HCl [V]	–	–	–	.uparw.	.dwnarw.	1.0	the same actions	the same actions	–
ACTH--(1-24) [VI, reference compound]	–	–	–	.dwnarw.	.uparw.	0.01 to 1	–	–	acceleration
ACTH (SYSMEHFRWGKPVGKKRRPVKVYPNGAEDESAEAFPLEF; Corticotropin; UniProt P01189 138-176, looked up) [peptide hormone cited from the literature]	–	–	–	–	–	–	–	–	acceleration
